Data set [1] relates to Q7 cells (ST HDH Q7/7; immortalized mouse striatal cells). The data set is described as follows: Q7 Cystine Deprivation cell survival (rescue) assay. It is filed as cell-based. Conditions: Q7 cells, cystine-free medium, 18 h, Cell Titer Glo, 50% relative viability vs Vitamin K2 (1 micromolar), read-out: Q7 Cystine Deprivation Survival EC50. In a few lines: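 Cells were seeded at 3,000/well and allowed to attach for 5 h at 33 °C. Wells were then washed twice with PBS and switched to cystine-free DMEM containing FBS, 4 mM L-glutamine, 1 mM pyruvate and 30 mg/L methionine to induce ferroptotic death. Compounds were scored for survival rescue.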
(Cellular ATP, detected with luciferase, serves as a proxy for viable cell number.)

Another data set deals with T1, CYP3A4 (Homo sapiens, UniProt P08684).
T1 construct: from tissue; host or cells: pooled human liver microsomes
T1 sequence (P08684 whole entry): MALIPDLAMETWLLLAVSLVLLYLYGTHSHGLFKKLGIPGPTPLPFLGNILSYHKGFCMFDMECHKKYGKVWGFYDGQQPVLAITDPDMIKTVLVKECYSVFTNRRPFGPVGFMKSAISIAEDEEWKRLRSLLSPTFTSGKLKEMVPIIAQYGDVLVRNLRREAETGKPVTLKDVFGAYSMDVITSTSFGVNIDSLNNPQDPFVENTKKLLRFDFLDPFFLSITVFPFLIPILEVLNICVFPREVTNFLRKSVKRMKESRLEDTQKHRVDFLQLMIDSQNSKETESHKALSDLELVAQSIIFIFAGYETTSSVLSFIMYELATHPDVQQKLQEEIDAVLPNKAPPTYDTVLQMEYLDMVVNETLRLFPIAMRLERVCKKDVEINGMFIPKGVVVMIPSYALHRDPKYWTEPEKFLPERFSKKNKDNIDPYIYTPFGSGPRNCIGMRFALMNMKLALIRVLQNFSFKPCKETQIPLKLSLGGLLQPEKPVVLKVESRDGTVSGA
Description: CYP450 Inhibition Assay 2 (pooled human liver microsomes, 5 concentrations). It is filed as in vitro ADME. The following applies: Table 3, HLM 0.05 mg protein/mL, 10 min reaction; for IC50 at 10 min: human, pooled human liver microsomes. The method, then:
In an alternative experimental design, test compounds were evaluated at 5 concentrations in a 96 well assay plate. Initial combination with pooled human liver microsomes (0.05 mg protein/mL) was followed by a 5 minute incubation. […] The assay plate was incubated for an additional 30 minutes before the reaction was initiated with the addition of NADPH. After 10 minutes of reaction time, the reaction was quenched and samples were analyzed in a similar manner as described above.
Background: Liver microsomes are vesicles of endoplasmic reticulum, rich in cytochrome P450 enzymes.

Data set [2] relates to Q7 cells (ST HDH Q7/7; immortalized mouse striatal cells). Description: Q7 RSL3 challenge cell survival (rescue) assay. The data set is classed as cell-based. The following applies: Q7 cells, RSL3 2 micromolar, 18 h, Cell Titer Glo, read-out: Q7 RSL3 Survival EC50. An excerpt: In neuronal cells excess extracellular glutamate inhibits the cystine/glutamate antiporter leading to intracellular cysteine depletion, GSH depletion, reactive oxygen species (ROS) production and cell death, a phenomenon termed oxidative glutamate toxicity, oxytosis, or ferroptosis. […] Q7 cells (ST HDH Q7/7; immortalized mouse striatal cells) challenged with cystine-free media or the selective, irreversible GPX4 inhibitor, methyl (1S,3R)-2-(2-chloroacetyl)-1-(4-(methoxycarbonyl)phenyl)-2,3,4,9-tetrahydro-1H-pyrido[3,4-b]indole-3-carboxylate (hereafter referred to as RSL3), recapitulate this phenotype, as do normal human fibroblasts (NHF) challenged with RSL3. An initial screen was performed to identify compounds effective in rescuing Q7 and/or NHF cells from death resulting from cystine deprivation or RSL3 challenge. This method is further described in Yonezawa et al., J. Neurochem 67, 566-573 (1996), Li et al., J Neurosci., 23, 5816-5826 (2003), Yang and Stockwell, Chem Biol., 15: 234-45 (2008), and Yang et al., Cell 156, 317-331 (2014). See also Hinman A, Holst C R, Latham J C, et al. Vitamin E hydroquinone is an endogenous regulator of ferroptosis via redox control of 15-lipoxygenase. PLoS One. 2018; 13(8):e0201369. Published 2018 Aug. 15. doi:10.1371/journal.pone.0201369; and Kahn-Kirby A H, Amagata A, Maeder C I, et al. Targeting ferroptosis: A novel therapeutic strategy for the treatment of mitochondrial disease-related epilepsy. PLoS One. 2019; 14(3):e0214250. Published 2019 Mar. 28. doi:10.1371/journal.pone.0214250.
DMEM (Catalog no. 11995-040), DMEM without Cystine (Catalog no. 21013-024), DMEM without Glucose (Catalog A1443001), PBS (Phosphate buffered saline), Penicillin-streptomycin mix, L-Glutamine, Glucose, Phenol Red, and Pyruvate were purchased from ThermoFisher Scientific (Gibco). Fetal Bovine Serum was obtained from Mediatech, Inc., or Sigma Aldrich. Mouse striatum derived ST HDH Q7/7 (Q7) and normal human skin fibroblast (NHF, product number GM21811) cells were obtained from the Coriell Institute. Methionine and Vitamin K2 were purchased from Sigma Aldrich. RSL3 was synthesized as previously described (see e.g. US Patent Publication US2010/0081654). Cell Titer Glo 2.0 was purchased from Promega. Q7 cell culture medium (Q7 growth medium) was made by combining 50 mL Fetal Bovine Serum, 100 U/mL penicillin, and 100 microgram/mL streptomycin; DMEM was added to make the volume up to 500 mL. Assay medium for the Cystine Deprivation assay was prepared by combining 50 mL Fetal Bovine Serum, 100 U/mL penicillin, 100 microgram/mL streptomycin, 4 mM L-Glutamine, 1 mM Pyruvate and 30 mg/L Methionine; DMEM without Cystine was added to make the volume up to 500 mL. NHF cell culture medium (NHF growth medium) was made by combining 50 mL Fetal Bovine Serum, 100 U/mL penicillin, 100 microgram/mL streptomycin, 2.8 mL 20% Glucose solution (final concentration 6 mM), L-glutamine (final concentration 2 mM), phenol red (final concentration 15 mg/L); DMEM without Glucose was added to make the volume up to 500 mL. Assay medium for the RSL3 challenge assay was identical to Growth medium. While not in use during the course of the experiments, these solutions were stored at 4° C. The cells were grown in 150-cm^2 tissue culture-treated flasks. Every third or fourth day, the cells were sub-cultured by trypsinization and re-seeded at a cell density of 600,000 (Q7) or 300,000 (NHF) cells per flask.
Q7 or NHF cells were cultured routinely as described herein. For 384-well cell survival assays, cells were seeded in clear bottom, black wall 384-well tissue culture-treated polystyrene plates by re-suspending a cell suspension at a density of 50,000 cells/mL in growth medium, then dispensing 60 microliters of cell suspension per well using either an electronic multichannel pipette or a Multidrop™ Combi Reagent Dispenser (ThermoFisher Scientific), corresponding to 3,000 cells/well. […]

In data set [3] the test system is normal human fibroblasts (NHF, GM21811). Description: NHF GM21811 RSL3 challenge cell survival (rescue) assay. It is filed as cell-based. The following applies: Fibroblast, NHF cells, RSL3 2 micromolar, 48 h, Cell Titer Glo, read-out: NHF GM21811 RSL3 Survival EC50. In a few lines: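 Q7 (33° C.) or NHF (37° C.) cells, 3,000/well, attached 5 h, then test compounds at varying final concentrations followed within 15 min by RSL3 (2 micromolar final); 0.3% DMSO. Assay medium identical to growth medium.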

On to `CC1=C(Cc2ccc(C(=O)NC3(C)CCC3)cn2)C(=O)c2ccccc2C1=O` [Example 103, 6-((3-methyl-1,4-dioxo-1,4-dihydronaphthalen-2-yl)methyl)-N-(1-methylcyclobutyl)nicotinamide], for which the EC50 in data set [1] lay within 0.25 to 1 µM. For the same compound, at CYP3A4, the IC50 came out at 41.5 µM.

As to `CC1=C(Cc2ccc(C#N)cn2)C(=O)c2ccccc2C1=O` [Example 123, 6-((3-methyl-1,4-dioxo-1,4-dihydronaphthalen-2-yl)methyl)nicotinonitrile], the EC50 in data set [1] was below 0.05 µM. Moreover, the IC50 at 10 min at CYP3A4 was at least 50 µM.

Consider `CC1=C(Cc2ccc(C(=O)N(C)C(C)C)cn2)C(=O)c2ccccc2C1=O` [Example 104, N-isopropyl-N-methyl-6-((3-methyl-1,4-dioxo-1,4-dihydronaphthalen-2-yl)methyl)nicotinamide], for which, in data set [1], the EC50 is below 0.05 µM. Besides, the IC50 at CYP3A4 amounted to 20.7 µM.

For the compound `CCCC1=C(Cc2ccc(F)cn2)C(=O)c2ccccc2C1=O` [Example 116, 2-((5-fluoropyridin-2-yl)methyl)-3-propylnaphthalene-1,4-dione], the EC50 in data set [1], in data set [2] and in data set [3] was below 0.05 µM throughout.

Take `CC1=C(Cc2ccc(C(F)F)cn2)C(=O)c2ccccc2C1=O` [Example 20, 2-((5-(difluoromethyl)pyridin-2-yl)methyl)-3-methylnaphthalene-1,4-dione]: the EC50 in data set [1], in data set [2] and in data set [3] was below 0.05 µM in each case.

On to `CC1=C(Cc2ccc(F)cn2)C(=O)c2ccc(F)cc2C1=O` [Example 48, 6-fluoro-2-((5-fluoropyridin-2-yl)methyl)-3-methylnaphthalene-1,4-dione], for which the EC50 in data set [1], in data set [2] and in data set [3] was below 0.05 µM in each case.

For the compound `CC1(C2=C(Cc3ccc(C(F)(F)F)cn3)C(=O)c3ccccc3C2=O)CC1` [Example 31, 2-(1-methylcyclopropyl)-3-((5-(trifluoromethyl)pyridin-2-yl)methyl)naphthalene-1,4-dione], in data set [1], the half-maximal effective concentration (EC50) was below 0.05 µM. Also, at CYP3A4, the IC50 was 17.4 µM.

On to `Cc1cc(CC2=C(C3CC3)C(=O)c3ccccc3C2=O)ncc1F` [Example 120, 2-cyclopropyl-3-((5-fluoro-4-methylpyridin-2-yl)methyl)naphthalene-1,4-dione], for which the 50% effective concentration (EC50) in data set [1], in data set [2] and in data set [3] was below 0.05 µM throughout.

`CC1=C(Cc2ncccc2C(F)(F)F)C(=O)c2ccccc2C1=O` [Example 39, 2-methyl-3-((3-(trifluoromethyl)pyridin-2-yl)methyl)naphthalene-1,4-dione]: the EC50 in data set [1] is below 0.05 µM. Also, at CYP3A4, the IC50 at 10 min was at least 50 µM.

For the compound `O=C1C(Cc2ccc(F)cn2)=C(C2CC2)C(=O)c2ccccc21` [Example 35, 2-cyclopropyl-3-((5-fluoropyridin-2-yl)methyl)naphthalene-1,4-dione], the EC50 in data set [1], in data set [2] and in data set [3] was below 0.05 µM each time.

On to `O=C1C(CCC2COC2)=C(Cc2ccc(C(F)(F)F)cn2)C(=O)c2ccccc21` [Example 33, 2-(2-(oxetan-3-yl)ethyl)-3-((5-(trifluoromethyl)pyridin-2-yl)methyl)naphthalene-1,4-dione], for which the results for the EC50 in data set [1], in data set [2] and in data set [3] were below 0.05 µM, below 0.05 µM and 0.05 to 0.25 µM, respectively.

As to `CCCC1=C(Cc2cc(C)c(F)cn2)C(=O)c2ccccc2C1=O` [Example 113, 2-((5-fluoro-4-methylpyridin-2-yl)methyl)-3-propylnaphthalene-1,4-dione], the EC50 in data set [1], in data set [2] and in data set [3] was below 0.05 µM throughout.

Turning to `CC1=C(Cc2cc(C(F)(F)F)ccn2)C(=O)c2ccccc2C1=O` [Example 9, 2-methyl-3-((4-(trifluoromethyl)pyridin-2-yl)methyl)naphthalene-1,4-dione], the EC50 in data set [1] was below 0.05 µM. The IC50 at CYP3A4 turned out to be 37.2 µM.

As to `CC(C)CC1=C(Cc2ccc(C(F)(F)F)cn2)C(=O)c2ccccc2C1=O` [Example 29, 2-isobutyl-3-((5-(trifluoromethyl)pyridin-2-yl)methyl)naphthalene-1,4-dione], in data set [1], the EC50 is below 0.05 µM. Also, at CYP3A4, the IC50 worked out at 21.4 µM.

On to `CCCC1=C(Cc2ccc(F)c(C)n2)C(=O)c2ccccc2C1=O` [Example 118, 2-((5-fluoro-6-methylpyridin-2-yl)methyl)-3-propylnaphthalene-1,4-dione], for which the EC50 in data set [1], in data set [2] and in data set [3] was below 0.05 µM throughout.

Regarding `CC1=C(Cc2ccc(C(F)(F)F)cn2)C(=O)c2c(F)ccc(F)c2C1=O` [Example 52, 5,8-difluoro-2-methyl-3-((5-(trifluoromethyl)pyridin-2-yl)methyl)naphthalene-1,4-dione], the EC50 in data set [1], in data set [2] and in data set [3] was below 0.05 µM throughout.

Take `CC1(CCC2=C(Cc3ccc(C(F)(F)F)cn3)C(=O)c3ccccc3C2=O)COC1` [Example 32, 2-(2-(3-methyloxetan-3-yl)ethyl)-3-((5-(trifluoromethyl)pyridin-2-yl)methyl)naphthalene-1,4-dione]: the EC50 in data set [1] was below 0.05 µM; in data set [2], below 0.05 µM; in data set [3] it was 0.05 to 0.25 µM.

With `Cc1ccc(CC2=C(CCC3COC3)C(=O)c3ccccc3C2=O)nc1` [Example 122, 2-((5-methylpyridin-2-yl)methyl)-3-(2-(oxetan-3-yl)ethyl)naphthalene-1,4-dione], the results for the EC50 in data set [1], in data set [2] and in data set [3] were below 0.05 µM, below 0.05 µM and 0.05 to 0.25 µM, respectively.

Take `CC1=C(Cc2ccc(F)cn2)C(=O)c2ccccc2C1=O` [Example 6, 2-((5-fluoropyridin-2-yl)methyl)-3-methylnaphthalene-1,4-dione]: the concentration for a half-maximal effect (EC50) in data set [1], in data set [2] and in data set [3] was below 0.05 µM in each case.

For `CC1=C(Cc2ccc(C(F)(F)F)cn2)C(=O)c2c(F)cccc2C1=O` [Example 51, 5-fluoro-2-methyl-3-((5-(trifluoromethyl)pyridin-2-yl)methyl)naphthalene-1,4-dione], the EC50 in data set [1], in data set [2] and in data set [3] was below 0.05 µM throughout.

As a reminder, the EC50 is the concentration giving half of the maximal effect. By IC50 is commonly meant the midpoint of a concentration-inhibition curve.
